Results: patent publication US20010055755A1, “Dendritic marker-expressing macrophage cultures and methods for reactivating latent HCMV” (priority 1997, published 2001)

System: HCMV
Assay: HCMV infection of monocyte-derived dendritic cells with cytokine treatment
Assay type: cell-based
Conditions: up to day 12 post stimulation, compared with unstimulated cells
Description: PBMC were isolated as described above and plated onto primaria plates for monocyte adherence. After two hours of culture, non-adherent cells were removed by three washes in serum free medium and adherent cells were stimulated with I1-4 (1000 U/ml) and GM-CSF (50 ng/ml) as previously described (Sallusto et al., J. Exp. Med. 179:1109-1118 (1994)). Immature dendritic cells cultured in RPMI medium containing 1% sodium pyruvate were developed during the first 12 days of culture. Cell samples were collected at 12 days for flow cytometric analysis to determine the expression of dendritic and macrophage markers. Small, round dendritic cells were stimulated with […] (10 ng/ml) and IFN-γ (500 U/ml) for two days. Thereafter, the mature, adherent dendritic cells were challenged with HCMV at a MOI of 10 or mock infected as described herein.
PBMC were cultured under standard conditions with IL-4 and GM-CSF to yield monocyte-derived dendritic cells (see, e.g., Annals Surg. 226:1-5 (1997)). The dendritic cells were infected in vitro under the conditions described herein with HCMV. […] Viral growth is measured as described with antibodies against viral proteins IE and gB. Viral growth is measured at days 1, 3, 8, 12, and 20 post infection.

## IFN-γ: cytokine used at 500 U/ml to stimulate dendritic cells
  viral expression in MDDC after additional stimulation: did not increase viral expression
